≈ marks a conversion by molar mass, not a printed value. Where “and” joins values, the source holds several entries; their conditions need not be identical. Equal values may be shown once.
Experiments:
NCI-H460 = assay: Cytotoxicity against human NCI-H460 cells; type: functional, cell-based
N2a = assay: Cytotoxicity against mouse Neuro2a cells assessed as inhibition of cell growth; type: functional, cell-based
Homo sapiens = species: Homo sapiens; assay: Inhibition of Voltage-gated sodium channel (unknown origin) at 3 ug/ml incubated for 18 hrs by cell-based bioassay relative to control; conditions: dose 3.0 µg/ml
MCF7 = assay: Cytotoxicity against human MCF7 cells assessed as inhibition of cell growth; type: functional, cell-based
[1] = Toxicity in brine shrimp assessed as lethal dose; conditions: artemia salina; read-out: LD50 (the source's name)
Nitzschia amabilis = assay: Growth inhibition of marine diatom assessed as inhibition rate at 10 ug/ml relative to control; type: functional
[2] = target: Protein kinase C delta type (Homo sapiens, UniProt Q05655); assay: Inhibition of [3H]-PDBu binding to PKCdelta C1B domain (unknown origin) by competitive binding assay
L1210 [3] = assay: Cytotoxicity against mouse L1210 cells assessed as inhibition of cell growth; type: functional, cell-based
[4] = Toxicity in shrimp assessed as lethal dose; conditions: palaemon paucidens
L1210 [5] = assay: Cytotoxicity against mouse L1210 cells assessed as inhibition of cell growth at 10 ug/mL relative to control; type: functional; conditions: Mus musculus, L1210, dose 10 µg/ml
[6] = system: Mycobacterium tuberculosis; assay: Antimycobacterial activity against Mycobacterium tuberculosis H37Rv assessed as inhibition of bacterial growth at 12.5 ug/ml relative to control; type: functional
MDA-MB-231 = assay: Cytotoxicity against human MDA-MB-231 cells assessed as cell growth inhibition; type: functional
A549 = assay: Cytotoxicity against human A549 cells assessed as cell growth inhibition; type: functional, cell-based
HT-29 = assay: Cytotoxicity against human HT-29 cells assessed as cell growth inhibition; type: functional

Chain of Protein kinase C delta type (Q05655 whole entry, the tested form may be a part): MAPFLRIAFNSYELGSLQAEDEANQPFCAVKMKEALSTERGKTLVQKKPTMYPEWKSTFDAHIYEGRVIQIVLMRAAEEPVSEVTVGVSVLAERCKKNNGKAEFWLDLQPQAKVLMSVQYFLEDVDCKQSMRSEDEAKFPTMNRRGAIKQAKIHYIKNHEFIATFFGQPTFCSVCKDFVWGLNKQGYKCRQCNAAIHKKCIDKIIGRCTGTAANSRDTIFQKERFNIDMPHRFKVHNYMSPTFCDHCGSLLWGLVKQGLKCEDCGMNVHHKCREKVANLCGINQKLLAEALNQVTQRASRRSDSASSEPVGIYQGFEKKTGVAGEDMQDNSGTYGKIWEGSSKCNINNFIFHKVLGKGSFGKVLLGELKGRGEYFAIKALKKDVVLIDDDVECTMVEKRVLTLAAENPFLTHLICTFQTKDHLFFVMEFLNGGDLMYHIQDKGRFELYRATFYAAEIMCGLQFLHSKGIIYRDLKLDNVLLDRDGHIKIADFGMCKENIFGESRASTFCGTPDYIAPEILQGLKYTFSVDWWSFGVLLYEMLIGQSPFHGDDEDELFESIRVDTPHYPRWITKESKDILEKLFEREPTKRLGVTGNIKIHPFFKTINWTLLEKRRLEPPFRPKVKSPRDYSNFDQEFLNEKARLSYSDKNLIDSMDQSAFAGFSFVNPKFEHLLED

Structure (SMILES): CCCCCCCC[C@@H](C/C=C/CCC(=O)NC/C(=C/Cl)[C@]12O[C@H]1[C@H](OC(C)=O)CCC2=O)OC
- IC50 (NCI-H460): 4 µM
- IC50 (N2a; Mus musculus, N2a): 4 µM
- inhibition (Homo sapiens): 28%

Structure (SMILES): CC(=O)n1c(=O)ccn([C@H]2C[C@H](O)[C@@H](CO)O2)c1=O
- IC50 (MCF7): 18.2 µg/mL (≈ 67.3 µM)

Structure (SMILES): COC(=O)C(CCC#CC=C(Cl)Cl)C(CCC/C=C/CC(Cl)Cl)NC=O (stereo not given)
- LC50 [1]: 1.7 µg/mL

Structure (SMILES): CO[C@@H](CC[C@H](C)[C@@H]1CC=C[C@]2(O1)[C@H](C(=O)O[C@@H]1CC(=O)O[C@@H]1C)C(=O)[C@H](C)CC2(C)C)c1cc(O)ccc1Br
- inhibition at 10 µg/mL (Nitzschia amabilis): 30%

Structure (SMILES): CCCCCCCCCCC[C@]1(CO)CCCC(=O)O1 [TANIKOLIDE]
- LC50 [1]: 3.6 µg/mL

Structure (SMILES): COc1ccc(C[C@@H]2NC(=O)/C(C)=C/C3CSC(=N3)[C@@H](C)[C@@H](O)C[C@H](C)C[C@@H](C(C)(C)C)OC(=O)[C@H](C)N(C)C(=O)[C@H](C(C)C)N(C)C(=O)[C@H](C)N(C)C2=O)cc1 (stereo not given in full)
- IC50 (NCI-H460): 0.014 µM

Structure (SMILES): CCC[C@H]1NC(=O)c2csc(n2)[C@H](C)NC(=O)[C@H](C(C)C)N(C)C(=O)[C@H](Cc2ccccc2)N(C)C(=O)[C@H](C)OC(=O)[C@@H]1C [ULONGAMIDE A]
- IC50 (N2a; n2a): 6 µM and 16 µM
- LC50 [1]: 18 µM

Structure (SMILES): CCC1CC(C)CC(=O)N(C)/C=C/CCC(C)C(=O)N[C@@H](C(C)C)C(=O)N(C)[C@@H](Cc2ccccc2)C(=O)N(C)[C@@H]([C@@H](C)O)C(=O)N(C)[C@@H](Cc2ccccc2)C(=O)O1 (stereo not given in full)
- IC50 (N2a; Mus musculus, N2a): 6 µM
- LC50 [1]: 9 µM

Structure (SMILES): CO[C@@H](CC[C@H](C)[C@H]1O[C@@]23C[C@H](OC(=O)C[C@H]([C@@H](C)O)OC(=O)C[C@](O)(O2)[C@H](C)CC3(C)C)[C@@H]1C)c1cccc(O)c1 [DEBROMOAPLYSIATOXIN]
- inhibition at 10 µg/mL (Nitzschia amabilis): 30%

Structure (SMILES): C=CC/C=C/N(C)C(=O)CCCCCCCC/C=C/[C@H](CSSC[C@@H](/C=C/CCCCCCCCC(=O)N(C)/C=C/CC=C)NC(C)=O)NC(C)=O
- IC50 (N2a; Mus musculus, N2a): 1.4 µg/mL

Structure (SMILES): CO[C@@H](CC[C@H](C)[C@H]1O[C@@]23C[C@H](OC(=O)C[C@H]([C@@H](C)O)OC(=O)/C=C(\O2)[C@@](C)(OO)CC3(C)C)[C@@H]1C)c1cc(O)ccc1Br
- inhibition at 10 µg/mL (Nitzschia amabilis): 30%

Structure (SMILES): COC(=O)[C@H](CCC#CC=C(Cl)Cl)[C@@H](CCCC#CCC(Cl)Cl)NC=O
- LC50 [1]: 1.7 µg/mL

Structure (SMILES): CO[C@@H](CC[C@H](C)[C@H]1O[C@@]2(C[C@H](OC)[C@@H]1C)OC(CC(=O)O[C@@H]1CC(=O)O[C@@H]1C)=C(C)CC2(C)C)c1cc(O)ccc1Br
- inhibition at 10 µg/mL (Nitzschia amabilis): 30%

Structure (SMILES): C=C[C@@](C)(CCC=C(C)C)c1ccc2c3c1NC(=O)[C@@]3(O)C[C@@H](CO)NC(=O)[C@@H](C(C)C)N2
- Ki [2]: 940 nM
- IC50 (L1210 [3]): 321 µM
- LD33 [4]: 25 mg/kg

Structure (SMILES): CCCCCCCC[C@@H](C/C=C/CCC(=O)NC/C(=C/Cl)[C@]12O[C@H]1[C@H](O)CCC2=O)OC
- IC50 (NCI-H460): 4 µM
- IC50 (N2a; Mus musculus, N2a): 4 µM

Structure (SMILES): CCCCCCCCCCCCCC/C=C/CCC1OC1C(=O)N[C@H](C)CO (stereo not given in full)
- LC50 [1]: 13 µM

Structure (SMILES): C=C[C@@](C)(CCC=C(C)C)c1ccc2c3c(c[nH]c13)C[C@@H](CO)NC(=O)[C@H](C(C)C)N2C
- Ki [2]: 0.11 nM
- IC50 (L1210 [3]): 8.1 µM
- LD100 [4]: 5 mg/kg

Structure (SMILES): CO[C@@H](CC[C@H](C)[C@H]1O[C@@]23C[C@H](OC(=O)C[C@H]([C@@H](C)O)OC(=O)/C=C(\O2)[C@@](C)(OO)CC3(C)C)[C@@H]1C)c1cccc(O)c1
- inhibition at 10 µg/mL (L1210 [5]): 10%

Structure (SMILES): CO/C(=C/C(=O)N1C(=O)C=C[C@@H]1C)CCNC(=O)CC/C=C/C(C)CC/C(=C\Cl)CCCC#CBr (stereo not given in full)
- IC50 (NCI-H460): 15 µM
- IC50 (N2a; Mus musculus, N2a): 15 µM

Structure (SMILES): CCCCCCCC[C@@H](C/C=C/CCC(=O)NC/C(=C/Cl)C1=CCCCC1=O)OC
- IC50 (NCI-H460): 1.1 µM
- IC50 (N2a; Mus musculus, N2a): 0.49 µM

Structure (SMILES): O=c1ccn([C@H]2C[C@H](O)[C@@H](CO)O2)c(=O)n1CCc1ccccc1
- IC50 (MCF7): 18.2 µg/mL (≈ 54.8 µM)

Structure (SMILES): C=C[C@@](C)(CCC=C(C)C)c1ccc2c3c(c[nH]c13)C[C@@H](CO)NC(=O)[C@@H](C(C)C)N2C
- Ki [2]: 17 nM
- IC50 (L1210 [3]): 20.4 µM
- LD100 [4]: 7.5 mg/kg

Structure (SMILES): CCCCCCC[C@@H](C/C=C/CCC(=O)N(C)C/C(=C/Cl)C/C(=C\C(=O)N1CC(O)CC1=O)OC)OC (stereo not given in full)
- inhibition at 12.5 µg/mL [6]: 10%
- GI50 (MDA-MB-231): 40 µM
- GI50 (A549): 40 µM
- GI50 (HT-29): 40 µM

Structure (SMILES): CO[C@@H](CC[C@H](C)[C@H]1O[C@]23C[C@H](OC(=O)C[C@H]([C@@H](C)O)OC(=O)CC(=C(C)CC2(C)C)O3)[C@@H]1C)c1cc(O)ccc1Br
- inhibition at 10 µg/mL (Nitzschia amabilis): 30%
